What all share (assay): NCI-60 cell line screen, 48 h
Test [1] has as its system HCT-15 colon.
Test [2] has as its system MDA-MB-231 breast.
Test [3] deals with MDA-MB-435.
In test [4] the test system is OVCAR-3 ovarian.
The subject of test [5] is OVCAR-8 ovarian.
In test [6] the test system is SF-295 CNS.
Test [7] deals with SK-MEL-5 melanoma.
In test [8] the test system is SN12C renal.
Test [9] deals with SNB-75 CNS.
Test [10] deals with UACC-257 melanoma.

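Five concentrations, 48 hours, 96-well plates. The concentration for full growth arrest is given as TGI.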

With `COc1ccc(NC(=S)NNC(=O)c2cc(-c3ccccc3)nc3ccccc23)cc1`, the TGI in test [1] stood at 33.7 µM; in [2] it was 51.2 µM; in test [3], 13.4 µM; in [4], 33.1 µM; in test [5] it was 38.9 µM; in test [6], 16.4 µM. Besides, the TGI stood at 25.6 µM in [7], 48.6 µM in test [8], 70.3 µM in [9] and 46.9 µM in test [10].
In the case of `Cc1ccc(S(=O)(=O)N2CCN(CCO)CCN(S(=O)(=O)c3ccc(C)cc3)CCN(CCO)CC2)cc1`, the TGI in [1] is 37.2 µM; in test [2] it was 48.4 µM; in test [3], 29.2 µM; in test [4], 44.5 µM; in test [5], above 100 µM; in test [6], above 100 µM. In addition, the TGI is 27.3 µM in test [7], above 100 µM in test [8], 92.4 µM in test [9] and 25.1 µM in test [10].
Regarding `CC(C)c1nccn1Cc1ccc(Cl)cc1Cl`, the TGI in test [1], in test [2], in [3], in [4], in test [5] and in test [6] was above 100 µM throughout. Also, the TGI in test [7] was determined as 34.9 µM; in test [8] it was 88.7 µM; in test [9] it was 85 µM; in test [10], 95.9 µM.
Turning to `Cc1cc(C)c2c(c1)CC1(Cc3c(C)cc(C)cc3C1=O)C2=O` (stereo not given), the TGI in [1], in [2], in test [3], in test [4], in test [5] and in [6] was above 100 µM each time. Besides, the TGI in [7], in test [8], in [9] and in test [10] was above 100 µM throughout.
On to `Cc1nn(-c2ccccn2)c2c1C(SC#N)=C(C=O)CC2`, for which the TGI in test [1] was 34 µM; in test [2] it was 31.9 µM; in [3], 37.7 µM; in [4] it was 26.5 µM; in [5], 30.8 µM; in test [6], above 100 µM. Further, the TGI in [7] is 28.2 µM; in test [8], 40.3 µM; in test [9] it was 30.1 µM; in test [10] it was 17.8 µM.
Turning to `COc1ccc(N2C(=O)/C(=C/c3ccc(N(CCC#N)CCC#N)cc3)N=C2c2ccccc2)c(OC)c1`, the TGI in test [1], in test [2], in test [3], in test [4], in test [5] and in [6] was above 100 µM each time. In addition, the TGI in [7], in [8], in test [9] and in test [10] was above 100 µM in each case.
Take `COC(=O)C1=C(C)NC2(C)OC(C)(O)C(C(C)=O)C12C(C)=O` (stereo not given): the TGI in [1], in test [2], in test [3], in test [4], in [5] and in test [6] was above 100 µM in each case. Also, the TGI in [7], in test [8], in [9] and in test [10] was above 100 µM in each case.
For `O=C(Nc1nc(C23CC4CC(CC(C4)C2)C3)cs1)c1cc2cc([N+](=O)[O-])ccc2oc1=O`, the TGI in test [1], in test [2], in test [3], in [4], in [5] and in test [6] was above 100 µM in each case. In addition, the TGI in [7] was 96.9 µM; in test [8], above 100 µM; in test [9], 74.9 µM; in [10] it was above 100 µM.
Turning to `O=S(=O)(O)c1ccc(Nc2ccnc3cc(Cl)ccc23)cc1`, the TGI in [1], in test [2], in test [3], in test [4], in [5] and in [6] was above 100 µM in each case. The TGI in test [7], in test [8], in test [9] and in test [10] was above 100 µM each time.
For the compound `COc1ccc(C2NC(=O)Nc3c2c(=O)oc2c3ccc3ccccc32)cc1` (stereo not given), the TGI in [1], in [2], in test [3], in test [4], in test [5] and in test [6] was above 100 µM in each case. Moreover, the TGI in test [7] is above 100 µM; in [8], above 100 µM; in test [9], 75.8 µM; in test [10], above 100 µM.
`CCCCCCCCC[n+]1cccc(C2C(C(=O)OCC)=C(C)NC(C)=C2C(=O)OCC)c1`: the TGI in [1] stood at 32.7 µM; in test [2] it was 10.9 µM; in test [3], 4.48 µM; in test [4], 11.8 µM; in [5], 11.2 µM; in test [6], 33.9 µM. In addition, the TGI in test [7] was determined as 3.8 µM; in [8], 17.5 µM; in test [9], 11.6 µM; in [10], 7.73 µM.
Consider `C=C1C(=O)O[C@H]2[C@H]([C@H](C)CCCC(C)=O)O[C@H]([C@@]3(C)CCC(=O)O3)C[C@@H]12`, for which the TGI in test [1], in test [2], in test [3], in test [4], in [5] and in test [6] was above 100 µM in each case. For the same compound, the TGI in test [7], in test [8], in test [9] and in [10] was above 100 µM throughout.
`COC(=O)/C=C\C(C#N)(C#N)N=Cc1ccsc1`: the TGI in test [1] amounted to 2.9 µM; in test [2], 12.2 µM; in test [3], 12.5 µM; in test [4], 5.37 µM; in [5], 13.3 µM; in [6], 27.5 µM. Besides, the TGI in test [7] was found to be 15.5 µM; in [8], 9.73 µM; in test [9], 29.5 µM; in test [10], 9.35 µM.

These data come from PubChem BioAssay (NCI).
